# Source: PubChem BioAssay (NCI)
# Where “and” joins values, the source holds several entries; their conditions need not be identical. Identical values can stand only once.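 Exposure lasted 48 hours, with cells grown in 96-well plates and compounds tested at five concentrations. Here, GI50 denotes the concentration required for 50% inhibition of growth. The concentration for full growth arrest is given as TGI.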
# Legend:
# Test in all cases: DTP human tumour cell line panel, 48 h
# HCT-116 colon = system: HCT-116 colon
# A549 NSCLC = system: A549 NSCLC
# UACC-257 melanoma = system: UACC-257 melanoma
# LOX IMVI melanoma = system: LOX IMVI melanoma
# HCC-2998 colon = system: HCC-2998 colon
# HOP-62 NSCLC = system: HOP-62 NSCLC
# SK-MEL-2 melanoma = system: SK-MEL-2 melanoma
# SN12C renal = system: SN12C renal
# COLO 205 colon = system: COLO 205 colon
# SNB-75 CNS = system: SNB-75 CNS
SMILES,TGI (HCT-116 colon),TGI (A549 NSCLC) [µM],TGI (UACC-257 melanoma),TGI (LOX IMVI melanoma),TGI (HCC-2998 colon),TGI (HOP-62 NSCLC),TGI (SK-MEL-2 melanoma),TGI (SN12C renal),TGI (COLO 205 colon),TGI (SNB-75 CNS) [µM],GI50 (HCT-116 colon),GI50 (A549 NSCLC),GI50 (UACC-257 melanoma),GI50 (LOX IMVI melanoma),GI50 (HCC-2998 colon),GI50 (HOP-62 NSCLC),GI50 (SK-MEL-2 melanoma),GI50 (SN12C renal),GI50 (COLO 205 colon),GI50 (SNB-75 CNS) [µM]
C1CCN2CC3CONC3C2C1 (centres undefined),> 100 µM,> 100,> 100 µM,> 100 µM,> 100 µM,> 100 µM,> 100 µM,> 100 µM,> 100 µM,> 100,–,–,–,–,–,–,–,–,–,–
O=S(=O)(NCCCNc1nccc(-c2c(-c3cccc(F)c3)nc3occn23)n1)c1cccc2ccccc12,> 100 µM,> 100,> 100 µM,> 100 µM,5.74 µM,> 100 µM,> 100 µM,> 100 µM,> 100 µM,> 100,3.71 µM,6.67 µM,21 µM,4.28 µM,2.52 µM,97.1 µM,6.99 µM,3.44 µM,4.64 µM,3.38
CC1=C(C(=O)CC(=O)C(=O)Nc2ccccc2C)Sc2ccccc2N1,> 55.8 µM,> 100,> 100 µM,> 57.4 µM,> 100 µM,> 100 µM,> 100 µM,> 100 µM,> 61.6 µM,> 100,–,–,–,–,–,–,–,–,–,–
COc1ncc2cc1NS(=O)(=O)c1cccc(c1)C(=O)NCC1=CC=C(S1)c1ncnc3c1SC2=C3C,2.85 µM,0.805,2.99 µM,0.499 µM,0.574 µM,4.1 µM,1.15 µM,18.3 µM,0.555 µM,2.26,0.277 µM,0.158 µM,0.371 µM,0.0902 µM,0.203 µM,0.238 µM,0.225 µM,0.395 µM,0.204 µM,0.0176
N#Cc1cccc(C2C3=C(COC3=O)N(CCO)c3cc4c(cc32)CCC4)c1 (centres undefined),13.3 µM,> 50,> 50 µM,> 44.9 µM,> 30.4 µM,> 50 µM,> 44.5 µM,> 50 µM,1.28 µM,–,0.143 µM,0.23 µM,> 50 µM,0.292 µM,0.186 µM,0.25 µM,0.319 µM,0.261 µM,0.146 µM,0.0393
Oc1c(I)cc(Cl)c2cccnc12,11.1 µM and 9.05 µM,> 100,83.5 µM and 71.5 µM,39.4 µM and 24.2 µM,36 µM and 59.4 µM,28.5 µM and 20.1 µM,> 100 µM and 41.3 µM,> 100 µM and 26.3 µM,21.8 µM and 75.4 µM,> 100,3.31 µM and 2.67 µM,3.96 µM and 8.89 µM,3.61 µM and 24.5 µM,2.66 µM and 4.03 µM,5.55 µM and 12.7 µM,4.02 µM and 4.07 µM,11 µM and 14.7 µM,3.27 µM and 4.82 µM,5.21 µM and 5.72 µM,4.42
O=[N+]([O-])c1ccc(/C=C\c2ccc3c(c2)OCO3)c([N+](=O)[O-])c1,21.4 µM,73.8,32 µM,27 µM,27.6 µM,69 µM,35.3 µM,34 µM,32.3 µM,31.5,–,–,–,–,–,–,–,–,–,–
O=C(Nc1ccc(Cl)c(Cl)c1)C1C(=O)N(c2ccc(Cl)c(Cl)c2)C(=O)/C1=N\O (centres undefined),> 100 µM,> 100,> 100 µM,87.7 µM,> 100 µM,> 100 µM,> 100 µM,> 100 µM,41.9 µM,> 100,–,–,–,–,–,–,–,–,–,–
Cc1ccc(NC2=CC(=O)C(=O)c3ccccc32)c(C)c1,4.23 µM,4.34,4.44 µM,4.46 µM,7.91 µM,12.5 µM,6.4 µM,9.17 µM,11.6 µM,3.49,1.66 µM,1.97 µM,1.96 µM,1.28 µM,2.54 µM,3.24 µM,2.29 µM,2.81 µM,3.06 µM,1.57
